# Laboratory results as given in patent US20260325500A1, “METHODS AND COMPOSITIONS FOR TREATING ACUTE STRESS DISORDER” (BioXcel Therapeutics, Inc., priority 2022, published 2026).
# Where a name gives a salt, the structure may show the parent alone.
# Test system: Yohimbine-induced noradrenergic hyperarousal in Wistar rats
# Test: Elevated plus maze, yohimbine-induced noradrenergic hyperarousal, dose response (Example 3)
# Format: in vivo
# Settings: for Percent increase as referred to the Vehicle level, Entries / Percent increase as referred to the Vehicle level, Time: 60 min
# Text: Background: Yohimbine is an alpha 2-adrenergic receptor antagonist reported to trigger panic attacks in healthy volunteers and to exacerbate symptoms in patients with panic disorder (Charney et al., 1992 Acta Psychiatr Scand., Vol. 86 (4): 273-282). Peripheral administration of Yohimbine causes noradrenergic mediated hyperarousal in rats as assessed by the EPM paradigm.
# Rationale: The drug yohimbine is a natural product used to test a specific pathway, noradrenergic-mediated hyper-arousal. It is well established that yohimbine is an alpha2-adrenergic receptor antagonist and activates the locus coeruleus (LC) and increases noradrenergic signaling (the opposite of alpha2-adrenergic agonists like dexmedetomidine and clonidine). Increased LC activity and noradrenergic signaling makes animals anxious and agitated which can be measured by using the elevated plus maze. In the elevated plus maze, rodents were in the closed arms and explored the open arms depending on their anxiety and agitation (rats and mice normally explore their environments extensively when calm). […] This behavior is correlated to increased level of anxiety caused by noradrenergic mediated hyperarousal.
# Animal groups: Rats were distributed in 9 different experimental groups with 12 […] per group as illustrated in Table 6. Each experimental group was also coded so that the experimenter became unaware of the true experimental group at the time EPM trial.
# Acclimatization: Male Wistar rats (Janvier; Le Genest St Isle-France) were used for the study. They were purchased at a body weight of 150 g and reached a body weight of about 220 g at the time of use. They were group-housed (3-4 rats per cage) and maintained in a room with controlled temperature (21-22° C.) and a reversed light-dark cycle (12 h/12 h; lights on: 17:30-05:30; lights off: 05:30-17:30).
# Drug preparation: All compounds/drugs were prepared in normal saline (0.9% NaCl).
# Yohimbine was prepared at a solution of 2.5 mg/mL which when injected i.p. at a dosage volume of 1 mL/kg results in a dose of 2.5 mg/kg. Diazepam was prepared at a solution of 1 mg/mL which when injected i.p. at a dosage volume of 1 mL/kg results in a dose of 1 mg/kg. Latrepirdine dihydrochloride hydrate was prepared at a solution of 7.5, 2.5, 0.75 and 0.25 mg/mL which when injected i.m. at a volume of 100 μL for a rat of 250 g results in doses of 3; 1; 0.3 and 0.1 mg/kg; respectively. Latrepirdine dihydrochloride hydrate was also prepared at […] which when administrated i.p. at a dosage volume of 1 mL/kg results in a dose of 3 mg/kg.
# Experimental procedure: The rats were randomly assigned to one of the different experimental groups. Each animal was identified by its group name, cage number, series (day) of experiment, and a number (from 1 to 9) written with permanent ink on its tail. They were handled by an experimenter for about 3 min each day during 1 week prior to the day of EPM trial. The apparatus was a PVC maze covered with Plexiglas and subdivided into four equal exploratory arms (40×10 cm), which were all interconnected by a small platform (10×10 cm). The apparatus was placed 65 cm above the floor. Two arms were opened, and two others were closed with wall (high: 10 cm). After compound administration, rat was placed on the platform opposite a closed arm. The number of entries and the time spent in each arm were recorded during a 5 min period. The animal was considered as entered in an arm when it placed its four paws in the arm. The apparatus was cleaned between each animal using alcohol (70%). Urine and feces were removed from the maze. During the trials, animal handling and the visibility of the operator were minimized as much as possible.
# Statistical analysis: Analysis of variance (ANOVA) was performed on the result data. Fisher's PLSD was used for pairwise comparisons and p value≤0.05 were considered significant. […]
# [1] = 0.1 mg/kg, i.m., yohimbine hydrochloride 2.5 mg/kg i.p.
# [2] = 0.3 mg/kg, i.m., yohimbine hydrochloride 2.5 mg/kg i.p.
# [3] = 1 mg/kg, i.m., yohimbine hydrochloride 2.5 mg/kg i.p.
# [4] = 3 mg/kg, i.m., saline (yohimbine-free rats)
# [5] = 3 mg/kg, i.m., yohimbine hydrochloride 2.5 mg/kg i.p.
# [6] = 3 mg/kg, i.p., yohimbine hydrochloride 2.5 mg/kg i.p.
smiles,measurement,setting,value
Cc1ccc2c(c1)c1c(n2CCc2ccc(C)nc2)CCN(C)C1 [latrepirdine dihydrochloride hydrate],"Percent increase as referred to the Vehicle level, Entries",[1],21%
same,"Percent increase as referred to the Vehicle level, Time",[1],21%
same,"Percent increase as referred to the Vehicle level, Entries",[2],11%
same,"Percent increase as referred to the Vehicle level, Time",[2],73%
same,"Percent increase as referred to the Vehicle level, Entries",[3],106%
same,"Percent increase as referred to the Vehicle level, Time",[3],274%
same,EPM performance of saline-treated rats (yohimbine-free),3 mg/kg i.m.,did not significantly modify the EPM performance
same,"EPM performance, i.m. compared with i.p. route","3 mg/kg, yohimbine rats",comparable to that of specimens treated intraperitoneally
same,"Percent increase as referred to the Vehicle level, Entries",[4],167%
same,"Percent increase as referred to the Vehicle level, Time",[4],377%
same,"Percent increase as referred to the Vehicle level, Entries",[5],172%
same,"Percent increase as referred to the Vehicle level, Time",[5],392%
same,"Percent increase as referred to the Vehicle level, Entries",[6],183%
same,"Percent increase as referred to the Vehicle level, Time",[6],486%
same,noradrenergic mediated hyperarousal in yohimbine administered rats,1 and 3 mg/kg,Conclusion: The results showed that latrepirdine dihydrochloride hydrate (at 1 and 3 mg/kg) significantly reduced noradrenergic mediated hyperarousal in yohimbine administered rats in dose-dependent manner (see table 7 and FIGS. 5 and 6).
same,"number of visits to and time spent into the open arms, significance","i.m., yohimbine administered rats, 0.1-3 mg/kg",effect was significant at the doses of 1 and 3 mg/kg
